The record followed here is patent publication US8552064B2, “Suramin and derivatives thereof as topical microbicide and contraceptive” (Eastern Virginia Medical School, priority 2005, dated 2013).

Converted amounts (≈) assume the structure as drawn. Like-named read-outs stand apart in the source and are kept apart here.

The test system of data set [1] is sperm. As to the kind of experiment: Sperm viability, membrane integrity (HOST). Format: cell-based. The procedure: Viability of sperm was assessed by a sperm membrane integrity evaluation as described in Jeyendran R. S. et al., J. Reprod. Fertil., 70: 219-28 (1984). Aliquots of sperm samples were incubated with suramin or N-9 test compounds. The reaction was terminated by the addition of 1.5 mL Ham's F10. Sperm were centrifuged and the pellet was resuspended in 200 μL of medium. Sperm viability was assessed by placing 100 μL of the sperm suspension in 900 μL of hypo-osmotic swelling test (HOST) medium for 30 min. Coiled sperm tails are a reflection of intact sperm membrane permeability and indicate viable sperm. A minimum of 200 cells were microscopically assessed from each sample.

Data set [2] has as its system human sperm, zona-free hamster eggs. The experiment in a line: Hamster-egg penetration test (HEPT). Format: cell-based. The procedure: The hamster-egg penetration test (HEPT) was used to predict the fertilizing ability of human sperm by evaluating the sperm's ooctye-penetration capability as described in Yanagimachi R. et al., Biol. Reprod., 15: 471-6 (1976). The zona pellucida of hamster eggs was dissolved by treatment with a protease, and human sperm were subsequently added to the zona free eggs. Sperm binding and penetration were assessed under a standard microscope (60× magnification) after placing the sperm-egg complexes onto polylysine-coated glass slides and covered them with 22×22 mm glass coverslips. The ability of the sperm to bind and enter the egg was scored by counting the sperm nuclei lying within the egg cytoplasm. The effect of the test compound was determined by comparing the number of sperm bound to the surface of the eggs and the percentage of penetrated eggs.

Data set [3] deals with rabbit sperm. The experiment in a line: Rabbit contraceptive efficacy, intravaginal application. Format: in vivo. The procedure:
Semen was collected from New Zealand White (NZW) male rabbits with the aid of an artifical vagina, pooled and adjusted with a modified Tyrode's albumin lactate pyruvate (TALP) medium to 50 million motile sperm per milliliter. Ovulation was induced in females by injection of 200 IU of human chorionic gonadotropin (hCG) intravenously. Under the ex-vivo (in-vitro) mixing protocol, sperm were incubated with indicated suramin test compounds in a tube for 15 minutes at 37° C. prior to insemination (0.5 mL) as described in Anderson R. A., et al. J. Androl., 21: 862-875 (2000). […] Sperm-compound contact, in this case, took place in vivo, inside the vagina. Insemination and administration of the compound was performed with a flexible, 12 cm long polyurethane catheter. The main endpoints for both protocols were the number of implantation sites counted 11 days after insemination and pregnancy rate. Such sites were counted by visual inspection of the tubes.

The subject of data set [4] is HIV-1 Ba-L. The experiment in a line: C-MAGI/Ba-L assay (viral entry inhibition, BaL). Format: cell-based. Conditions: for IC50: Human immunodeficiency virus 1, BAL. The procedure:
The C-MAGI/Ba-L assays were carried out with MAGI-CCR-5 cells. The cell line was maintained in DMEM medium containing 10% FBS, 100 U/ml penicillin, 300 μg/mL glutamate and selection antibiotics as indicated above. Before assay, the cells were placed in 96 well flat tissue culture plates at 1×10^4 cells per well, and incubated overnight in the absence of antibiotics. The next day, medium was removed, and virus and compound (100 μL virus (HIVBa-L)+100 μL compound) were added. The cultures were incubated for 2 hours to facilitate virus attachment. After this incubation, the medium is removed from the wells, replaced with fresh compound-free medium, washed twice and finally incubated at 37° C. for 2 days in fresh medium. Following incubation, the medium was removed and induction of β-galactosidase enzyme activity was detected by chemiluminescence. β-galactosidase activity was detected using a chemiluminescence substrate, following the manufacture's instructions (Tropix). The TC50 and IC50 are determined using linear regression and a therapeutic index or antiviral index calculated. The results of this assay are provided herein.

Data set [5] has as its system HSV-2. As to the kind of experiment: HSV plaque assay, HSV-2. The data set is classed as cell-based, HSV (type 2 strain 333). The procedure:
Evaluation of anti-HSV activity of suramin was based on the method described by Herold et al., J. Virol., 70: 3461-3469 (1996). The compound was serially diluted (1000 μg/ml to 1.0 μg/ml) in phosphate-buffered saline (PBS), and each dilution was mixed with each of two serial dilutions (10^−5 and 10^−6) HSV (type 2 strain 333). Working viral titers were […]. Samples (1 ml) of each mixture were plated in duplicate on washed and drained confluent monolayers of CaSki cells (a human cervical epithelial cell line, obtained from the American Type Culture Collection, Rockville, Md.) on the bottoms of 25 cm^2 flasks. Initial titer (indicated in the control cultures with no added test agent) in each culture was given as pfu/ml. The flasks were incubated for 2 hours, after which the medium (containing virus and test compound) was removed and the cells were washed with PBS. Cells were cultured for 3 days in medium 199, supplemented with 1% serum and 0.5% methyl cellulose that contained anti-HSV antibodies to prevent the formation of secondary plaques. Cells were stained with Giemsa for the counting of viral plaques by phase contrast microscopy. The viral titer was inferred from the number of plaques, after correction for dilutions. Values were corrected to a control titer 5×10^8 pfu/ml. Data were expressed as viral titer and as the percentage of plaques that are counted in control cell cultures (not exposed to test agent). […] The concentration of the compound that was required to reduce the viral titer by 50% (IC50) was estimated with curve-fitting software (TableCurve 2D, version 3.02) from plots of plaque-forming units (pfu) per ml as a function of concentration of the compound.

Data set [6] deals with CaSki cells. As to the kind of experiment: Cytotoxicity in the anti-herpes study. Conditions: highest concentration tested (1000 μg/mL). Format: cell-based, human.
Data set [7] relates to interleukin release by vaginal cells. The data set is classed as cell-based, human. The procedure: Interleukin levels were assessed in the supernatant collected after 6 hours of compound-cells incubation using commercial ELISA kits (R&D Diagnostics, Minneapolis, Minn.) according to manufacturer's instructions (also see Fichorova R. N. et al., J. Infect. Dis. 184(4): 418-28, 2001).

As for `Cc1ccc(C(=O)Nc2ccc(S(=O)(=O)O)c3cc(S(=O)(=O)O)cc(S(=O)(=O)O)c23)cc1NC(=O)c1cccc(NC(=O)Nc2cccc(C(=O)Nc3cc(C(=O)Nc4ccc(S(=O)(=O)O)c5cc(S(=O)(=O)O)cc(S(=O)(=O)O)c45)ccc3C)c2)c1` [Suramin, 8,8′-(carbonylbis(imino-3,1-phenylenecarbonylimino(4-methyl-3,1-phenylene)carbonylimino))bis-1,3,5-naphthalene trisulfonic acid], in data set [1] (10-0.001 mg/mL), the “sperm viability vs solvent-treated controls” value is “No significant differences”. The “Potency, Viability (HOST)” value in data set [1] (time- and dose-dependent exp.) was “None”. In addition, in data set [2], the “Potency, Oolemma binding/Penetration (HEPT)” value is listed as “High”; the inhibition of penetration was found to be 100%; the “inhibition of sperm binding to hamster zona-free oocytes” value was 75%. The “sperm penetration/fertilization of zona-free eggs” value in data set [2] (n=28 oocytes) is given as “completely abolished sperm penetration/fertilization”. Further, the “inhibition (contraceptive), Vaginal Application” value in data set [3] (1.25% in Replens) turned out to be 100% inhibition. Also, the “inhibition, Vaginal Application” value in data set [3] (2%) was 44% at 2%. Further, in data set [3] (2% suramin + 2% sorbitan mono laurate or 0.1% N-9), the “inhibition, Vaginal Application Combo” value was 100% inhibition at. For the same molecule, in data set [3] (5%, intravaginal administration), the “reduction in PR” value came to 75% inhibition. Besides, in data set [3] (rabbit, in vivo), the “Potency, Contraception, rabbit inseminated sperm (Vaginal Application)” value was “Moderate”; the “Potency, Vaginal Application Combo” value is recorded as “High”; the “Potency, Vaginal Application, Replens” value is “High”. For the same molecule, the “Potency, HIV-1 MAGI-Bal” value in data set [4] is on record as “High”. Also, the IC50 in data set [4] (HeLa, 2 h, read-out: IC50, Cell-Free Strains BaL, CD4/coreceptor expressing HeLa cells, incubation 2 hours) was 5.5 µg/mL (≈ 4.24 µM). Further, the IC50 in data set [4] (2h-incubation, read-out: IC50 against Bal) worked out at 0.39 µg/mL (≈ 0.301 µM). In addition, the “Potency, HSV-2 Plaque” value in data set [5] was “High”. The inhibition at 100 µg/mL in data set [5] (Human alphaherpesvirus 2, 100 μg/mL, read-out: inhibition of viral infectivity, plaque assay) was 100%. Besides, the IC50 in data set [5] (Human alphaherpesvirus 2, read-out: IC50 against HSV-2) was determined as 1 µg/mL (≈ 0.771 µM). Further, in data set [6], the cytotoxicity result was “not being significantly cytotoxic”. For the same molecule, in data set [7], the “N-9-induced release of IL-1 and IL-8 by vaginal cells” value was “decreased N-9-induced release of IL-1 and IL-8”; the “Potency, Proinflammatory Cytokines (ELISA)” value is “None”; the “stimulation of proinflammatory cytokines” value is given as “no stimulation of proinflammatory cytokines”. For the same molecule, in data set [7] (human, 6 h), the “release of IL-1β by cultured vaginal cells” value is reported as “did not induce the release of IL-1β”.
